The source of these data is patent US11427544B2, “Histone deacetylase 6 inhibitors and use thereof” (TAIPEI MEDICAL UNIVERSITY, priority 2016, dated 2022).

In test [1] the test system is MDA-MB-231 Breast cancer cell line. As to the kind of experiment: Antiproliferative activity, MDA-MB-231. The format is cell-based, human. To be noted: Homo sapiens, MDA-MB-231, MDA-MB-231. The procedure: (§1) A study was conducted to evaluate the inhibitory activity of compounds of Formula (I) in inhibiting HDAC6, antiproliferative activity of test compounds in suppressing cancer cell growth, and selectivity of inhibiting HDAC6 over other HDAC isoforms.
(§2) The study was performed according to the protocol reported in Hsieh et al., Cell Death and Disease, 2014, April; 5:e1166.
(§3) Shown in Table 2 below are antiproliferative activities (measured by their half maximal concentration for inhibiting cell growth, i.e., GI50) of the test compounds against various cancer cell lines.

The test system of test [2] is A549 lung cancer cell line. Kind of test: Antiproliferative activity, A549. The format is cell-based, human. To be noted: Homo sapiens. The procedure:
as §1, §2, §3

The subject of test [3] is polyubiquited proteins. Kind of test: Accumulation of polyubiquited proteins. In kind it is cell-based. The conditions noted are these: dose-dependent. The procedure: A study was conducted to evaluate the activity of a compound of Formula (I) in inhibiting HDAC6-dynein binding and inducing accumulation of polyubiquited proteins.
Cell lysates were immunoprecipitated overnight at 4° C. with 1 μg of dynein antibody and A/G-agarose beads. The precipitated beads were washed three times with 1 mL of an ice-cold cell lysis buffer solution. The resulting immune complex was resolved by 10% SDS-PAGE gel electrophoresis, followed by immunoblotting assay using anti-HDAC6 Ab.
The study was performed according to the protocol reported in Chen et al., Journal of Immunology, 2008, 181(12):8441-8449.

The subject of test [4] is scopolamine-induced memory deficit. As to the kind of experiment: Elevated plus maze test, scopolamine-treated rats. In kind it is in vivo. To be noted: gavage twice daily for seven days; scopolamine 1.5 mg/kg i.p. The procedure:
An in vivo study was conducted to evaluate the efficacy of compounds of Formula (I) in improving memory deficits associated with Alzheimer's disease. Compound 12, Compound 28, suberanilohydroxamic acid (50 mg/kg) or vehicle was given to rats by gavage twice daily for seven days prior to behavioral experiments. On the day conducting a behavior assessment, rats in all groups except the control group were administered scopolamine (1.5 mg/kg) by intraperitoneal injection for 30 minutes before the assessment, then a water maze test or an elevated plus maze test was performed. […] The significant reduction in transfer latency time indicated improvement in memory.

For test [5], the system named is Caspase-3, Caspase-8, and Caspase-9 cleavage in RPMI8226 and NCI-H929. Kind of test: Cleavage of Caspase-3, -8 and -9 in multiple myeloma cells, combined with bortezomib. The format is cell-based, human. The procedure:
A study was conducted to evaluate the effect of a compound of Formula (I) combined with bortezomib in increasing cleavage of Caspase-3, Caspase-8, and Caspase-9 in multiple myeloma cells.
Cells (1×10^6) were incubated for 10 minutes at 4° C. in a lysis buffer solution in a culture vessel, and then scraped off the culture vessel, incubated on ice for another 10 minutes, and centrifuged at 17,000×g for 30 minutes at 4° C. Protein samples ([…]) were electrophoresed on SDS gels and transferred onto a nitrocellulose membrane, which was blocked by incubation with 5% fat-free milk in phosphate-buffered saline (PBS) for 30 minutes at room temperature. Immunoblotting was performed by overnight incubation at 4° C. with primary antibodies in PBS, followed by incubation for 1 hour at room temperature with horseradish peroxidase (HRP)-conjugated secondary antibodies, then bound antibodies were measured using enhanced chemiluminescence (ECL) reagent (Advansta Corp., Menlo Park, Calif., USA) and exposure to photographic film.
The study was performed according to the protocol reported in Yang et al., Journal of Molecular Medicine, 2014, November; 92(11):1147-1158.

Test [6] deals with Aβ42 production in pCAX APP 695 plasmid-transfected Neuro 2a and SH—SYSY cells. Kind of test: Aβ42 production in cell culture supernatants. The format is cell-based. To be noted: pCAX APP 695 transfected Neuro 2a and SH—SYSY cells; 0.1-10 μM, 24 hours. How it is done: A study was conducted to evaluate the effect of compounds of Formula (I) in amyloid precursor protein (APP) levels and Aβ42 production.
Moreover, neuro 2a or SH—SYSY cells (1×10^5) were transfected with pCAX APP 695 plasmid for 24 hours, followed by incubation with Compound 12 or Compound 28 (0.1-10 μM) for another 24 hours. Cell culture supernatants were assayed for Aβ42 production.

For `O=C(NO)c1ccc(CNc2cccc3cccnc23)cc1` [Compound 28, N-hydroxy-4-((quinolin-8-ylamino)methyl)benzamide], the GI50 was 1.89 ± 0.33 µM in test [1] and 5.24 ± 0.18 µM in test [2]. The “accumulation of polyubiquited proteins” value in test [3] was “induced accumulation of polyubiquited proteins”. Further, in test [4], the “transfer latency time (elevated plus maze)” value is on record as “significantly rescued scopolamine-mediated increase of transfer latency time”. Also, the “cleavage of Caspase-3, Caspase-8, and Caspase-9” value in test [5] was “increased cleavage of Caspase-3, Caspase-8, and Caspase-9”. Besides, the Aβ42 production result in test [6] is reported as “decreased Aβ42 production”.
